biological target: T1, CRBN Cys287 (Homo sapiens, UniProt Q96SW2); experiment: Inhibition of iodoacetamide probe labeling of CRBN cysteines, cell lysate (Table 3A); format: binding; conditions: 7.8 micromolar, cell lysate, 1 h
T1 construct: endogenous in cells
Protocol: “X@Y” means that x % inhibition of iodoacetamide probe labeling was observed by treatment of cell lysate with the give compound in each row of the table for 1 h at a concentration of y micromolar. There was consistently high inhibition at C318 in addition to C287, which can be attributed to an allosteric inhibition.

T1 sequence (Q96SW2 whole entry): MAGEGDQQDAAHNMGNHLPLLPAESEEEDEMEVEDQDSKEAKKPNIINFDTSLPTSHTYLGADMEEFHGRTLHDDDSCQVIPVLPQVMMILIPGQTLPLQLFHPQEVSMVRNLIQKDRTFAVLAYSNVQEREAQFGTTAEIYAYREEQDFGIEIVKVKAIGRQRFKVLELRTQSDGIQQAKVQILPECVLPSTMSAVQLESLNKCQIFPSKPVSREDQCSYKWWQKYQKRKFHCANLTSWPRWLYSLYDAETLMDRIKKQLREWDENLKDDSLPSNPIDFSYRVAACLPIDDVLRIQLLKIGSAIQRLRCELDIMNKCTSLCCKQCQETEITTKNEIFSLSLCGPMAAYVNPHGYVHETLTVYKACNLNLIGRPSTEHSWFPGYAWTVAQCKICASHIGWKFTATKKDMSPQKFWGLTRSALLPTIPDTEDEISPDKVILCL

SMILES	inhibition at 7.8 µM [%]
COc1ccccc1-c1cc(C#N)cc(OC2CCN(C(=O)/C(C#N)=C/C(C)(C)C)CC2)c1 [Example A4]	96

same assay, conditions: 31.2 micromolar, cell lysate, 1 h; read-out: % inhibition of iodoacetamide probe labeling, Cys287

SMILES	inhibition at 31.2 µM [%]
COc1ccccc1-c1cc(C#N)cc(OC2CCN(C(=O)/C(C#N)=C/C(C)(C)C)CC2)c1 [Example A4]	97
CC(/C=C(\C#N)C(=O)N1CCC(Oc2cccc(C#N)c2)CC1)c1ccccc1 (centres unmarked) [Example A6]	82

same assay, conditions: 125 micromolar, cell lysate, 1 h; read-out: % inhibition of iodoacetamide probe labeling, Cys287

SMILES	inhibition at 125 µM [%]
CC(/C=C(\C#N)C(=O)N1CCC(Oc2cccc(C#N)c2)CC1)c1ccccc1 (centres unmarked) [Example A6]	94

same assay, conditions: 500 micromolar, cell lysate, 1 h; read-out: % inhibition of iodoacetamide probe labeling, Cys287

SMILES	inhibition at 500 µM [%]
COc1ccccc1-c1cc(C#N)cc(OC2CCN(C(=O)/C(C#N)=C/C(C)(C)C)CC2)c1 [Example A4]	99
CC(/C=C(\C#N)C(=O)N1CCC(Oc2cccc(C#N)c2)CC1)c1ccccc1 (centres unmarked) [Example A6]	95

same assay, conditions: read-out: % inhibition of iodoacetamide probe labeling, Cys287

SMILES	inhibition at 125 µM [%]	inhibition at 0.49 µM [%]	inhibition at 2 µM [%]
COc1ccccc1-c1cc(C#N)cc(OC2CCN(C(=O)/C(C#N)=C/C(C)(C)C)CC2)c1 [Example A4]	99	–	–
CC(/C=C(\C#N)C(=O)N1CCC(Oc2cccc(C#N)c2)CC1)c1ccccc1 (centres unmarked) [Example A6]	–	62	77

biological target: T2, CRBN_C287 (Homo sapiens, UniProt Q96SW2); experiment: CRBN C287 inhibition, probe labeling in lysate (Example 42); format: binding; conditions: 500 uM, lysate, 1 h; read-out: % inh @ 500 uM (CRBN_C287, lysate 1 h)
T2 construct: endogenous in cells; host or cells: cell lysate
Protocol: The following 96-well sample prep protocol was used for sample preparation.
Cells were resuspended in cold PBS on ice and sonicated with a probe sonicator to achieve lysis. 200 μL of lysate containing 5 mg/ml proteome was treated with 2 μL of 100× compound stock in a 2-mL deep-well plate. The treated lysate was subsequently incubate at 25° C. for 1 hr with shaking at 600 rpm. The treated lysate was further incubated with 2 μL of 10 mM desthiobiotin iodoacetamide probe at 25° C. for 1 hr with shaking at 600 rpm. […] 1.7 mL ice-cold acetone was added to each well and incubated at −20° C. for 2 hr, followed by max speed (4200 rpm) spin for 45 min. Acetone was then decanted and the plates were blotted to remove acetone. The plates were then dried in open air for 20 minutes. After drying, the plates were then covered with foil seal and stored at −80° C. overnight.
The next day, samples were re-suspended in 90 μL of solution of 9M urea, 50 mM ammonium bicarbonate and 10 mM DTT by incubating at 65° C. for 20 min with shaking at 1500 rpm. […] The samples were then incubated at 37° C. for 30 min with shaking at 600 rpm.
ZEBA desalting plates were equilibrated 4 times using 250 μL of 2M urea, 50 mM ammonium bicarbonate solution followed by centrifugation at 1500 rpm for 2 minutes. After equilibration was complete, samples were applied to ZEBA desalting plate and spin at 1500 rpm for 2 min on top of 1 mL 96-well deep-well collection plate to buffer exchange samples. 4 μL of solution containing 25 mM CaCl2 and 0.25 mg/mL trypsin was added to the plate and the plate was then incubated at 37° C. for 2 hrs with shaking at 600 rpm. 300 μL of solution containing 5% high-capacity streptavidin agarose slurry in 25 mM Tris-HCl pH 7.5, 150 mM NaCl, and 0.1% NP-40 then added. The plate was incubated at 25° C. for 2 hrs with shaking at 600 rpm. Samples were transferred to 25 μm filter plate and spin at 1000 rpm for 2 min. Samples were then washed 3 times with 0.75 mL of wash buffer (25 mM Tris-HCl pH 7.5, 150 mM NaCl, and 0.1% NP-40) followed by washing 3 times with 0.75 mL PBS, and then 4 times with 0.75 mL water. After the washing step, samples were eluted into polypropylene 96-well plate by addition of 250 μL of 50% MeCN/water, 0.1% formic acid and allowed to gravity drip for 10 min, followed by centrifugation at 1000 rpm for 2 min. Speedvac was used to dry the plates at about 45° C. for […]. Then the plates were covered with foil seal and stored at −20° C.
Then add 30 μL of 0.1% formic acid solution was added and the plate was covered and incubated at 42° C. for 10 minutes with shaking at 600 rpm. Seal plate was then sealed with a 96-well silicon mat for analysis.

T2 sequence (Q96SW2 whole entry): as above

SMILES	inhibition at 500 µM [%]
C=CC(=O)N1CCC(Oc2cccc(-c3ccccc3OCC)c2)CC1 [Example 2]	59.8
C=CC(=O)N1CCC(Oc2cccc(-c3ccccc3O)c2)CC1 [Example 3]	48.9
C=CC(=O)N1CCC(Oc2cc(Cl)cc(-c3ccccc3)c2)CC1 [Example 6]	72.2
C#CC(=O)N1CCC(Oc2cccc(-c3ccccc3OC)c2)CC1 [Example 9]	88.8
COc1ccccc1-c1cc(C#N)cc(OC2CCN(C(=O)/C=C/CN3CCOCC3)CC2)c1 [Example 12]	87.2
C=CC(=O)N1CCC(Oc2cc(C#N)cc(-c3ccccc3OC)c2)CC1 [Example 14]	94.5
C=CC(=O)N1CCC(Oc2cccc(-c3ccccc3OC)c2Cl)CC1 [Example 18]	60.4
C=CC(=O)N1CCC(Oc2cccc(-c3ccccc3)c2C#N)CC1 [Example 19]	68.2
C=CC(=O)N1CCC(Oc2cccc(-c3ccccc3OC)c2C#N)CC1 [Example 20]	57.6
C=CC(=O)N1CCC(Oc2cc(OC)cc(-c3ccccc3OC)c2)CC1 [Example 24]	89.3
C=CC(=O)N1C2CCC1CC(Oc1cc(C#N)cc(-c3ccccc3OC)c1)C2 [Example 38, 5-(((1R,3s,5S)-8-acryloyl-8-azabicyclo[3.2.1]octan-3-yl)oxy)-2′-methoxy-[1,1′-biphenyl]-3-carbonitrile]	78

Results, then the compound that gave them:

inhibition at 500 µM [%]	SMILES
74.8	C=CC(=O)N1CCC(Oc2cccc(-c3ccc(F)cc3OC)c2)CC1 [Example 1, 1-(4-((4′-fluoro-2′-methoxy-[1,1′-biphenyl]-3-yl)oxy)piperidin-1-yl)prop-2-en-1-one]
64.8	C=CC(=O)N1CCC(Oc2cccc(-c3ccccc3Cl)c2)CC1 [Example 4]
88.5	C=CC(=O)N1CCC(Oc2cc(Cl)cc(-c3ccccc3OC)c2)CC1 [Example 5]
91.2	C=CC(=O)N1CCC(Oc2cccc(-c3ccccc3OC)c2)CC1 [Example 7]
76.8	C#CC(=O)N1CCC(Oc2cccc(-c3ccccc3)c2)CC1 [Example 8]
52.4	CN(C)C/C=C/C(=O)N1CCC(Oc2cccc(-c3ccccc3)c2)CC1 [Example 10]
92.9	COc1ccccc1-c1cccc(OC2CCN(C(=O)/C=C/CN(C)C)CC2)c1 [Example 11]
81.3	C=CC(=O)N1CCC(Oc2cc(C#N)cc(-c3ccccc3)c2)CC1 [Example 13]
64.6	C=CC(=O)N1CCC(Oc2cc(-c3ccccc3OC)ccc2C(N)=O)CC1 [Example 21]
95.2	C=CC(=O)N1CCC(Oc2cc(C(N)=O)cc(-c3ccccc3OC)c2)CC1 [Example 22]
91.1	C=CC(=O)N1CCC(Oc2cc(OC)cc(-c3ccccc3)c2)CC1 [Example 23]
77.4	C=CC(=O)N1CCC(Oc2cc(C(=O)NC)cc(-c3ccccc3OC)c2)CC1 [Example 26]

same assay, conditions: CRBN_C287, lysate 1 h

SMILES	CRBN_C287 inhibition, result in words
C=CC(=O)N1CCn2c(nnc2C(F)(F)F)C1	No activity
C=CC(=O)N1CCC(Oc2ccc(-c3ccc(S(C)(=O)=O)cc3)cc2)CC1	No activity

same assay, conditions: TE50, CRBN_C287, lysate 1 h

SMILES	IC50 [µM]
C=CC(=O)N1CCC(Oc2cc(C#N)cc(-c3ccccc3OC)c2)C(C)C1 (single isomer, unassigned) [Example 34, 5-((1-acryloyl-3-methylpiperidin-4-yl)oxy)-2′-methoxy-[1,1′-biphenyl]-3-carbonitrile]	8.97
C=CC(=O)N1CCC(Oc2cc(C#N)cc(-c3ccccc3OC)c2)C(C)C1 (single isomer, unassigned) [Example 35, 5-((1-acryloyl-3-methylpiperidin-4-yl)oxy)-2′-methoxy-[1,1′-biphenyl]-3-carbonitrile]	9.8
C=CC(=O)N1CCC(Oc2cc(C#N)cc(-c3ccccc3CC)c2)CC1 [Example 15]	22.2
COc1ccccc1-c1cc(C#N)cc(OC2CCN(C(=O)/C(C#N)=C/C(C)C)CC2)c1 [Example 16]	0.12
C=CC(=O)N1CCC(Oc2cc(-c3ccccc3OC)cc(C#N)n2)CC1 [Example 28, 6-((1-acryloylpiperidin-4-yl)oxy)-4-(2-methoxyphenyl)picolinonitrile]	80
C=CC(=O)N1CC[C@H](Oc2cc(C#N)cc(-c3ccccc3OC)c2)[C@@H](F)C1 [Example 29, 5-(((3S,4S)-1-acryloyl-3-fluoropiperidin-4-yl)oxy)-2′-methoxy-[1,1′-biphenyl]-3-carbonitrile]	1.25
C=CC(=O)N1CC[C@@H](Oc2cc(C#N)cc(-c3ccccc3OC)c2)[C@H](F)C1 [Example 30, 5-(((3R,4R)-1-acryloyl-3-fluoropiperidin-4-yl)oxy)-2′-methoxy-[1,1′-biphenyl]-3-carbonitrile]	0.4
C=CC(=O)N1CC[C@H](Oc2cc(C#N)cc(-c3ccccc3OC)c2)[C@H](F)C1 [Example 31, 5-(((3R,4S)-1-acryloyl-3-fluoropiperidin-4-yl)oxy)-2′-methoxy-[1,1′-biphenyl]-3-carbonitrile]	0.29
C=CC(=O)N1CC[C@@H](Oc2cc(C#N)cc(-c3ccccc3OC)c2)[C@@H](F)C1 [Example 32, 5-(((3S,4R)-1-acryloyl-3-fluoropiperidin-4-yl)oxy)-2′-methoxy-[1,1′-biphenyl]-3-carbonitrile]	1.49
C=CC(=O)N1CCC(Sc2cccc(-c3ccccc3OC)c2)CC1 [Example 37, 1-(4-((2′-methoxy-[1,1′-biphenyl]-3-yl)thio)piperidin-1-yl)prop-2-en-1-one]	31
C=CC(=O)N1[C@@H]2CC[C@H]1C[C@H](Oc1cc(C(N)=O)cc(-c3ccccc3OC)c1)C2 [Example 39, 5-(((1R,3s,5S)-8-acryloyl-8-azabicyclo[3.2.1]octan-3-yl)oxy)-2′-methoxy-[1,1′-biphenyl]-3-carboxamide]	53
C#CCOCCOCCOCCOc1ccc(OC)c(-c2cc(C#N)cc(OC3CCN(C(=O)C=C)CC3)c2)c1 [Example 40, 3-[2-methoxy-5-[2-[2-(2-prop-2-ynoxyethoxy)ethoxy]ethoxy]phenyl]-5-[(1-prop-2-enoyl-4-piperidyl)oxy]benzonitrile]	2.57
C=CC(=O)N1CCC(Oc2cc(OC(F)(F)F)cc(-c3ccccc3OC)c2)CC1 [Example 41, 1-(4-((2′-methoxy-5-(trifluoromethoxy)-[1,1′-biphenyl]-3-yl)oxy)piperidin-1-yl)prop-2-en-1-one]	31

Further lines, results first:

IC50 [µM]	SMILES
4.66	C=CC(=O)N1CCC(Oc2cc(C#N)cc(-c3ccccc3OC)c2)C(C)C1 (single isomer, unassigned) [Example 33, 5-((1-acryloyl-3-methylpiperidin-4-yl)oxy)-2′-methoxy-[1,1′-biphenyl]-3-carbonitrile]
7.5	C=CC(=O)N1CCC(Oc2cc(-c3ccccc3OC)cnn2)CC1 [Example 27, 1-(4-((5-(2-methoxyphenyl)pyridazin-3-yl)oxy)piperidin-1-yl)prop-2-en-1-one]
0.12	C=CC(=O)N1CC(Oc2cc(C#N)cc(-c3ccccc3OC)c2)C1 [Example 36, 5-((1-acryloylazetidin-3-yl)oxy)-2′-methoxy-[1,1′-biphenyl]-3-carbonitrile]
